{
  "source": "patent US8017364B2",
  "about": "“Solvent tolerant microorganisms” (Butamax(TM) Advanced Biofuels LLC, priority 2006, dated 2011)",
  "key": {"[1]": {"test_system": "most microorganisms described in the art", "conditions": "liquid medium, 37° C.; cited from earlier work"}, "[2]": {"test_system": "PN1011", "conditions": "liquid medium, 37° C.", "description": "(§1) The growth data was used to calculate the percent growth inhibition caused by 1-butanol by subtracting the percent growth ([…]; where T0OD600 is the initial optical density at the starting time and T5OD600 is the optical density after 5 h) from 100%."}, "[3]": {"test_system": "PN1042", "conditions": "liquid medium, 37° C.", "description": "as §1"}, "[4]": {"test_system": "Lactococcus lactis overexpressing GroESL", "conditions": "GroESL overexpression; equals 0.4% weight/volume (w/v); cited from earlier work"}, "[5]": {"test_system": "Lactobacillus paracasei overexpressing GroESL", "conditions": "GroESL overexpression; equals 0.4% weight/volume (w/v); cited from earlier work"}, "[6]": {"test_system": "identified tolerant strains", "assay": "Expected growth on solid medium, inferred from IC50 values and correlation with 1-butanol tolerance", "assay_type": "cell-based, Pediococcus"}},
  "data": [
    {"smiles": "CCCCO", "note": "[1-butanol]", "values": [
      {"measurement": "concentration at which growth is totally inhibited", "setting": "[1]", "value": "less than 2.0 % w/v"},
      {"measurement": "growth in the presence of 1-butanol", "setting": "[2]; PN1011, 3% (w/v) 1-butanol", "value": "low levels of growth"},
      {"measurement": "percent growth inhibition", "setting": "[2]; PN1011, 3.5% (w/v) 1-butanol, OD600 over 5 h", "value": 100, "unit": "%"},
      {"measurement": "growth in the presence of 1-butanol", "setting": "[3]; PN1042, 3% (w/v) 1-butanol", "value": "low levels of growth"},
      {"measurement": "percent growth inhibition", "setting": "[3]; PN1042, 3.5% (w/v) 1-butanol, OD600 over 5 h", "value": 100, "unit": "%"},
      {"measurement": "concentration at which strain was able to grow", "setting": "[4]", "value": "0.5 % volume/volume (v/v)"},
      {"measurement": "concentration at which strain was able to grow", "setting": "[5]", "value": "0.5 % volume/volume (v/v)"}
    ]},
    {"smiles": "CCC(C)O", "note": "(stereo not shown) [2-butanol]", "values": [
      {"measurement": "concentration in solid medium on which strains are expected to grow", "setting": "[6]", "value": 4.0, "unit": "% w/v"}
    ]},
    {"smiles": "CCC(C)=O", "note": "[2-butanone]", "values": [
      {"measurement": "concentration in solid medium on which strains are expected to grow", "setting": "[6]", "value": 6.0, "unit": "% w/v"}
    ]},
    {"smiles": "CC(C)CO", "note": "[isobutanol]", "values": [
      {"measurement": "concentration in solid medium on which strains are expected to grow", "setting": "[6]", "value": 3.5, "unit": "% w/v"}
    ]}
  ]
}
